Data on 2 compounds can be found in patent US20260356803A1, “Nicotinamide derivatives” (Board of Regents, The University of Texas System, priority 2024, published 2026).

Series [1] deals with human MPNST cell line S462. Briefly: S462 cell viability (CellTiter-Glo, 72 h). The series is classed as cell-based. Particulars: for IC50: read-out: IC50. The source says:
This similarity, in addition to the scaffold's particular sensitivity to modifications around the pyridinyl ring led us to hypothesize that the activity of compounds 1 and 9 may depend on the concentration of Nam in the media. To test this hypothesis, we analyzed the activity of both compounds in media supplemented with increasing concentrations of Nam. […] Given that Nam inhibited compound activity, we considered Nam concentrations in basal culture conditions (DMEM supplemented with 10% fetal bovine serum or FBS) as compared to physiological levels. Nam levels in human serum are estimated to be in the 4 μM range.^5 In contrast, DMEM alone contains […] of Nam and the concentration in 10% FBS is expected to range between 0.574-1.56 μM.^6 To more closely reflect physiologic levels of Nam, we evaluated the activity of these compounds in cells grown in DMEM lacking Nam (Nam-free DMEM), so that the only exogenous Nam derives from 10% FBS. […] These observations indicate that the potency of these compounds is in the nanomolar range when tested in the presence of physiological levels of Nam.
We thus re-assessed the structure activity relationship of compound 21 analogs in Nam-free DMEM supplemented with or without 100 μM Nam (see appendix below: Synthesis, characterization and activity of micromolar and nanomolar active nicotinamide derivatives). […] Particularly notable, even in Nam-depleted conditions, all active analogs retained the same 3-pyridinyl ring as Nam, reinforcing the relationship between structural resemblance to Nam and compound efficacy.
In 96-well assay plates (Corning #2903), 2,000 cells were plated per well in 100 μL of medium and allowed to adhere overnight. The next day, compounds or Nam suspended in DMSO were dispensed to the assayed wells using a D300e Digital Dispenser (Tecan). All wells were normalized to 0.5% DMSO. 72 hours after incubation at 37 °C in 5% CO2, cell viability was assayed using an ATP-based luminescent viability assay, CellTiter-Glo (Promega #G8462). CellTiter-Glo substrate was mixed 1:1 with phosphate-buffered saline (PBS) supplemented with 1% Triton X-100, and 40 μL of this mixture was added to the assay wells. After the plates were shaken on a microplate shaker for 10 minutes at room temperature, luminescence was recorded using a Synergy 2 Microplate Reader or Cytation 5 plate reader (BioTek). In Prism 9 software (GraphPad), ten-point dose response curves were plotted with baseline-correction to the vehicle control well, and IC50 values were calculated by curve fitting using asymmetric (five parameter), least squares fit.

The next series deals with NAMPT and NMNAT1. Briefly: Cell-free metabolism by NAMPT and NMNAT1. Conditions: role: substrate, 200 μM compound, NMNAT1, 0.4 mM PRPP, 2.5 mM ATP, 37 °C. The series is classed as biochemical. The protocol: (§1) We reasoned that 1 and 9 would likely be metabolized to 1-mononucleotide (1-MN) and 9-mononucleotide (9-MN) by NAMPT and then to 1-adenine dinucleotide (1-AD) and 9-adenine dinucleotide (9-AD) by NMNAT1. Thus, we analyzed extracts from cell-free reactions that co-incubate each compound with NAMPT, NMNAT1, PRPP, and ATP by high-resolution mass spectrometry to identify these putative metabolites based on exact mass. […] To test whether these compound metabolites were also produced in cells, we analyzed metabolic extracts from cells treated with either 1 or 9.
A reaction mixture containing 50 mM Tris pH 8, 0.4 mM PRPP, 2.5 mM ATP, 12 mM MgCl2, 0.02% BSA, 1 μM NAMPT, 100 nM NMNAT1 and 200 μM compound 9 or 1 was incubated at 37 °C. Fifty microliter aliquots were quenched at the indicated time points by adding two volumes of acetonitrile with 0.1% formic acid and vortexing for 15 seconds. After incubation for ten minutes at room temperature, samples were centrifuged at 13,200 rpm for 5 minutes. The supernatants were filtered through 0.2 μm PVDF filters (Sigma #SLGV004SL) and analyzed by LC-MS/TOF. […]
(§2) Data analysis for TOF data was performed using SCIEX MultiQuant software version 3.0.3. For each of the compounds monitored, the theoretical exact m/z was calculated. […]

For a further series, the system named is S462 cells. Briefly: Metabolism in S462 cells. Conditions: 500 nM compound. The series is classed as cell-based, human. The protocol: as §1
Prior to the experiment, cells were cultured in low-Nam DMEM for at least 1 passage (3 days) to deplete intracellular Nam. 15,000 cells were plated in a 96-well plate with 100 μL low-Nam media. At appropriate time points, 500 nM 1 or 9, or equal volume of vehicle (DMSO) were added using TECAN. 200 μL of acetonitrile with 0.1% formic acid were added to the assayed wells. For the 0-hour time point, compound or vehicle was added after the addition of acetonitrile and formic acid. […] The supernatants were filtered through 0.2 μm PVDF filters and analyzed by LC-MS/TOF. […]
as §2

The mark [2] stands for this setting: Nam titration experiment, media without added Nam.
The mark [3] stands for this setting: S462, commercial DMEM, highest dose tested 50 μM.
[4] abbreviates: addition of 100 μM exogenous Nam.

SMILES strings stand for the structures. Read-outs that look alike come from different tables or passages of the source.

`O=C(Nc1cccnc1)c1cccs1` [Compound 1, N-(pyridin-3-yl)thiophene-2-carboxamide]: the IC50 (in general, the concentration needed to halve the response being measured) was 1960 nM in series [1] (setting [2]), 1410 nM in series [1] (setting [3]), 6850 nM in series [1] (setting [4]) and 32300 nM in series [1] (addition of 1 mM exogenous Nam). The “levels of parent compound over time” value in the series with NAMPT and NMNAT1 is recorded as “time-dependent decrease”. Besides, the “levels of parent compound over time in cells” value in the series with S462 cells was “time-dependent depletion”.

Consider `O=C(Nc1cccs1)c1cccnc1` [Compound 9, N-(Thiophen-2-yl)nicotinamide], for which the “toxicity to S462” value in series [1] (10% FBS Nam-free DMEM) is recorded as “toxic to S462”. Moreover, in series [1] (10% FBS Nam-free DMEM, comparison of vacor, 3-AP, tiazofurin and 9), the rescue by nicotinamide entry is given as “rescued by nicotinamide”. In series [1] (10% FBS Nam-free DMEM, versus 3-AP), the “IC50 of 9 less than 3-AP” value came out at 1823 fold. Also, the “IC50 of 9 less than tiazofurin” value in series [1] (10% FBS Nam-free DMEM, versus tiazofurin) worked out at 477 fold. In series [1] (10% FBS Nam-free DMEM, versus vacor), the “IC50 of 9 less than vacor” value is reported as 206 fold. The IC50 in series [1] (setting [2]) was determined as 845 nM; in series [1] (Nam-free DMEM with 10% FBS), 9.17 nM; in series [1] (Nam-free DMEM, addition of 1.4 μM Nam), 51.4 nM; in series [1] (Nam-free DMEM, addition of 37 μM Nam), 1840 nM; in series [1] (setting [3]), 1200 nM; in series [1] (setting [4]), 4230 nM. Besides, the concentration for half-maximal inhibition (IC50) in series [1] (addition of 1 mM exogenous Nam) turned out to be 35700 nM. In series [1] (Nam-free DMEM versus basal medium), the “potency increase in Nam-free DMEM” value came to 92 fold. Besides, the “average increase in IC50 on NMNAT1 knockout” value in series [1] (S462, three independent NMNAT1 sgRNAs) came to 28.5 fold. Moreover, the “levels of parent compound over time” value in the series with NAMPT and NMNAT1 is given as “time-dependent decrease”. In addition, the “levels of parent compound over time in cells” value with S462 cells is “time-dependent depletion”.
